# Data: US7196110B2, “N-substituted tricyclic 3-aminopyrazoles as inhibitors for the treatment of cell proliferative disorders” (Janssen Phamaceutica N.V., priority 2002, dated 2007)
# Target: T1, PDGF-receptor beta enzyme comprising the tyrosine kinase domain (Homo sapiens, UniProt P09619)
# T1 construct: from amino acid 545 to 1106 of GenBank Access NO: AAA36427
# Assay: Inhibition of PDGF-receptor kinase activity (cell-free, PLC1 peptide, 33P Flashplate)
# Format: biochemical
# Conditions: PDGF-R kinase activity; for inhibition at 10 µM: compound at 10 uM, read-out: Percent Inhibition @ 10 uM; for IC50: read-out: IC50
# In short: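 Recombinant kinase domain (aa 545–1106) phosphorylated a biotinylated PLC1 peptide with 5 μM ATP plus 33P-γ-ATP, in Tris pH 8, MgCl2, Na3VO4 and 1 mM DTT, for 60 min at 30 °C. Retained 33P was counted after washing. IC50 is the concentration halving activity versus no-inhibitor reactions.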
# T1 sequence (P09619 545-1106): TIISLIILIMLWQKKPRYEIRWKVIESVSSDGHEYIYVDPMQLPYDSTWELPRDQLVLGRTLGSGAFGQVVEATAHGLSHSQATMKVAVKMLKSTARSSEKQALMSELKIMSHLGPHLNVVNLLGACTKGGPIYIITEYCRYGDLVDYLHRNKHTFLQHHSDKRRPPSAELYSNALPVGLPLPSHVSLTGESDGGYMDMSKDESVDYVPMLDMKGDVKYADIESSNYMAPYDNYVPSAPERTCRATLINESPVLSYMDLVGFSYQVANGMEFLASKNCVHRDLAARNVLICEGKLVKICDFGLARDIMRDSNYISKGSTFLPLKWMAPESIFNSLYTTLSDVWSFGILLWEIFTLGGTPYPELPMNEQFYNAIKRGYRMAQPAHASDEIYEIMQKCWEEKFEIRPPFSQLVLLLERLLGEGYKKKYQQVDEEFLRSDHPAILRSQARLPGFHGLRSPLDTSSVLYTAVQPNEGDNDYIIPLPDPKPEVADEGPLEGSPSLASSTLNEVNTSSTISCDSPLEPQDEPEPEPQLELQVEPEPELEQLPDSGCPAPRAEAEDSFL
Structure (SMILES),inhibition at 10 µM [%],IC50 [nM]
"COc1ccc(OC)c2c1Cc1c-2n[nH]c1Nc1ccccc1 [Compound 332, (5,8-Dimethoxy-2,4-dihydro-indeno[1,2-c]pyrazol-3-yl)-phenyl-amine]",90,372
"Fc1cccc(Nc2n[nH]c3c2Cc2sccc2-3)c1 [Compound 335, (5,7-Dihydro-1-thia-4,5-diaza-cyclopenta[a]pentalen-6-yl)-(3-fluoro-phenyl)-amine]",100,129
"Cc1ccc(Cl)cc1Nc1[nH]nc2c1Cc1ccccc1-2 [Compound 338, (5-Chloro-2-methyl-phenyl)-(2,4-dihydro-indeno[1,2-c]pyrazol-3-yl)-amine]",78.5,451
"Fc1ccc(C(F)(F)F)cc1Nc1[nH]nc2c1Cc1ccccc1-2 [Compound 340, (2,4-Dihydro-indeno[1,2-c]pyrazol-3-yl)-(2-fluoro-5-trifluoromethyl-phenyl)-amine]",92.5,105
"COc1ccc(Cl)cc1Nc1[nH]nc2c1Cc1ccccc1-2 [Compound 342, (5-Chloro-2-methoxy-phenyl)-(2,4-dihydro-indeno[1,2-c]pyrazol-3-yl)-amine]",56.5,26.7
COc1cccc(Nc2[nH]nc3c2Cc2ccccc2-3)c1 [Compound 343],99.5,8.08
"N#Cc1ccc2c(c1)CCc1c-2n[nH]c1Nc1ccccc1 [Compound 350, 3-Phenylamino-4,5-dihydro-2H-benzo[g]indazole-7-carbonitrile]",91,651
"COc1cc2c(cc1F)Cc1c-2n[nH]c1Nc1cccc(F)c1 [Compound 357, (6-Fluoro-7-methoxy-2,4-dihydro-indeno[1,2-c]pyrazol-3-yl)-(3-fluoro-phenyl)-amine]",98.5,9.42
"Oc1cc2c(cc1O)-c1n[nH]c(Nc3cccc(F)c3)c1C2 [Compound 362, 3-(3-Fluoro-phenylamino)-2,4-dihydro-indeno[1,2-c]pyrazole-6,7-diol]",80.5,784
"COc1cc2c(cc1F)Cc1c-2n[nH]c1Nc1cccnc1 [Compound 364, (6-Fluoro-7-methoxy-2,4-dihydro-indeno[1,2-c]pyrazol-3-yl)-pyridin-3-yl-amine]",100,15.1
"CCOc1cc2c(cc1OCCCO)-c1n[nH]c(Nc3cccc(F)c3)c1C2 [Compound 365, 3-[6-Ethoxy-3-(3-fluoro-phenylamino)-2,4-dihydro-indeno[1,2-c]pyrazol-7-yloxy]-propan-1-ol]",99.5,11.3
"CCOc1cc2c(cc1OCCCO)-c1n[nH]c(Nc3cccc(OC)c3)c1C2 [Compound 366, 3-[6-Ethoxy-3-(3-methoxy-phenylamino)-2,4-dihydro-indeno[1,2-c]pyrazol-7-yloxy]-propan-1-ol]",100,12.1
"CCOc1cc2c(cc1OCCCO)-c1n[nH]c(Nc3ccc(F)c(Cl)c3)c1C2 [Compound 368, 3-[3-(3-Chloro-4-fluoro-phenylamino)-6-ethoxy-2,4-dihydro-indeno[1,2-c]pyrazol-7-yloxy]-propan-1-ol]",89.5,62.9
"OCCCOc1cc2c(cc1OCCCO)-c1n[nH]c(Nc3cccnc3)c1C2 [Compound 372, 3-[7-(3-Hydroxy-propoxy)-3-(pyridin-3-ylamino)-2,4-dihydro-indeno[1,2-c]pyrazol-6-yloxy]-propan-1-ol]",100,15.5
"CCOc1cccc(Nc2[nH]nc3c2Cc2cc(OCC)c(OCC)cc2-3)c1 [Compound 375, (6,7-Diethoxy-2,4-dihydro-indeno[1,2-c]pyrazol-3-yl)-(3-ethoxy-phenyl)-amine]",96.5,103
"Cc1ccccc1CNc1[nH]nc2c1Cc1cc(F)ccc1-2 [Compound 378, (6-Fluoro-2,4-dihydro-indeno[1,2-c]pyrazol-3-yl)-(2-methyl-benzyl)-amine]",94.5,467
"COc1cc2c(cc1OCC(O)CN1CCCC1)Cc1c-2n[nH]c1NCc1c(Cl)cccc1Cl (centres unmarked) [Compound 390, 1-[3-(2,6-Dichloro-benzylamino)-7-methoxy-2,4-dihydro-indeno[1,2-c]pyrazol-6-yloxy]-3-pyrrolidin-1-yl-propan-2-ol]",99,2.03
"Clc1cccc(Nc2[nH]nc3c2Cc2c(OCCCN4CCOCC4)cccc2-3)c1 [Compound 392, (3-Chloro-phenyl)-[5-(3-morpholin-4-yl-propoxy)-2,4-dihydro-indeno[1,2-c]pyrazol-3-yl]-amine]",80,153

# The remaining lines, values ahead:
inhibition at 10 µM [%],IC50 [nM],Structure (SMILES)
52,10600,"COc1cc2c(cc1OC)-c1n[nH]c(NCc3cccc(F)c3)c1C2 [Compound 327, (6,7-Dimethoxy-2,4-dihydro-indeno[1,2-c]pyrazol-3-yl)-(3-fluoro-benzyl)-amine]"
78.5,697,"COc1cc2c(cc1OC)-c1n[nH]c(NCc3ccc(F)cc3F)c1C2 [Compound 328, (2,4-Difluoro-benzyl)-(6,7-dimethoxy-2,4-dihydro-indeno[1,2-c]pyrazol-3-yl)-amine]"
58,76.2,"COc1cc2c(cc1OC)-c1n[nH]c(NCc3ccccc3C(F)(F)F)c1C2 [Compound 329, (6,7-Dimethoxy-2,4-dihydro-indeno[1,2-c]pyrazol-3-yl)-(2-trifluoromethyl-benzyl)-amine]"
93,189,"COc1cc2c(cc1OC)-c1n[nH]c(NCc3ccc(F)cc3)c1C2 [Compound 331, (6,7-Dimethoxy-2,4-dihydro-indeno[1,2-c]pyrazol-3-yl)-(4-fluoro-benzyl)-amine]"
73.5,2550,"COc1cc2c(cc1OC)C(C)c1c-2n[nH]c1NCc1cccc(Cl)c1 (centres unmarked) [Compound 333, (3-Chloro-benzyl)-(6,7-dimethoxy-4-methyl-2,4-dihydro-indeno[1,2-c]pyrazol-3-yl)-amine]"
100,64.7,"CCOc1cc2c(cc1OCC)C(C)c1c-2n[nH]c1Nc1cccc(F)c1 (centres unmarked) [Compound 344, (6,7-Diethoxy-4-methyl-2,4-dihydro-indeno[1,2-c]pyrazol-3-yl)-(3-fluoro-phenyl)-amine]"
88,89.3,"CCOc1cc2c(cc1OCC)C(C)c1c-2n[nH]c1Nc1cccnc1 (centres unmarked) [Compound 345, (6,7-Diethoxy-4-methyl-2,4-dihydro-indeno[1,2-c]pyrazol-3-yl)-pyridin-3-yl-amine]"
98,73.9,"CCOc1cc2c(cc1OCC)C(C)c1c-2n[nH]c1Nc1cccc(Br)c1 (centres unmarked) [Compound 346, (3-Bromo-phenyl)-(6,7-diethoxy-4-methyl-2,4-dihydro-indeno[1,2-c]pyrazol-3-yl)-amine]"
90.5,545,CCOc1cc2c(cc1OCC)C(C)c1c-2n[nH]c1Nc1ccc(F)c(Cl)c1 (centres unmarked) [Compound 347]
78,80.9,"CCOc1cc2c(cc1OCC)C(C)c1c-2n[nH]c1Nc1ccc(F)cc1 (centres unmarked) [Compound 349, (6,7-Diethoxy-4-methyl-2,4-dihydro-indeno[1,2-c]pyrazol-3-yl)-(4-fluoro-phenyl)-amine]"
93,400,"CC(C)Oc1cc2c(cc1OC(C)C)C(C)c1c-2n[nH]c1Nc1cccc(F)c1 (centres unmarked) [Compound 351, (6,7-Diisopropoxy-4-methyl-2,4-dihydro-indeno[1,2-c]pyrazol-3-yl)-(3-fluoro-phenyl)-amine]"
86.5,755,"CC(C)Oc1cc2c(cc1OC(C)C)C(C)c1c-2n[nH]c1Nc1cccnc1 (centres unmarked) [Compound 352, (6,7-Diisopropoxy-4-methyl-2,4-dihydro-indeno[1,2-c]pyrazol-3-yl)-pyridin-3-yl-amine]"
88,359,"CC(C)Oc1cc2c(cc1OC(C)C)C(C)c1c-2n[nH]c1Nc1cccc(Br)c1 (centres unmarked) [Compound 353, (3-Bromo-phenyl)-(6,7-diisopropoxy-4-methyl-2,4-dihydro-indeno[1,2-c]pyrazol-3-yl)-amine]"
62,2450,"CC(C)Oc1cc2c(cc1OC(C)C)C(C)c1c-2n[nH]c1Nc1ccc(F)c(Cl)c1 (centres unmarked) [Compound 354, (3-Chloro-4-fluoro-phenyl)-(6,7-diisopropoxy-4-methyl-2,4-dihydro-indeno[1,2-c]pyrazol-3-yl)-amine]"
85,1030,"COc1cccc(Nc2[nH]nc3c2C(C)c2cc(OC(C)C)c(OC(C)C)cc2-3)c1 (centres unmarked) [Compound 355, (6,7-Diisopropoxy-4-methyl-2,4-dihydro-indeno[1,2-c]pyrazol-3-yl)-(3-methoxy-phenyl)-amine]"
70,1950,"CC(C)Oc1cc2c(cc1OC(C)C)C(C)c1c-2n[nH]c1Nc1ccc(F)cc1 (centres unmarked) [Compound 356, (6,7-Diisopropoxy-4-methyl-2,4-dihydro-indeno[1,2-c]pyrazol-3-yl)-(4-fluoro-phenyl)-amine]"
97,8.14,"CCOc1cc2c(cc1OCCCO)-c1n[nH]c(Nc3cccc(Cl)c3)c1C2 [Compound 367, 3-[3-(3-Chloro-phenylamino)-6-ethoxy-2,4-dihydro-indeno[1,2-c]pyrazol-7-yloxy]-propan-1-ol]"
99,8.57,"COc1cc2c(cc1OC)-c1n[nH]c(Nc3cccnc3Cl)c1C2 [Compound 377, (2-Chloro-pyrid-3-yl)-(6,7-dimethoxy-2,4-dihydro-indeno[1,2-c]pyrazol-3-yl)-amine]"
100,11.6,"COc1cc2c(cc1OCC(O)CO)Cc1c-2n[nH]c1NCc1ccccc1F (centres unmarked) [Compound 387, 3-[3-(2-Fluoro-benzylamino)-7-methoxy-2,4-dihydro-indeno[1,2-c]pyrazol-6-yloxy]-propane-1,2-diol]"
